Measured values reported in paper PMC5638916, “CETSA quantitatively verifies in vivo target engagement of novel RIPK1 inhibitors in various biospecimens” (Scientific Reports, 2017).
Read-outs that look alike come from different tables or passages of the source.

Columns and labels:
HT-29 cells = test: HT-29 necroptosis assay; type: cell-based, human; conditions: TNF-α + AT-406 + zVAD-FMK, 16–20 h, read-out: HT29-Necroptosis (IC50) (converted)
Experimental: The efficacies of RIP1 inhibitors were tested in vitro using HT-29 cells and L929 cells in a necroptosis assay. For HT-29 necroptosis assay, frozen HT-29 cells were thawed and diluted to 1.5 × 10^5 cells ml^−1 in McCoy’s 5 A Medium (16600108, Invitrogen) supplemented with 10% FBS, 100 U ml^−1 penicillin, and 100 μg ml^−1 streptomycin. A 20 μl aliquot of cell suspension was added to each well of a 384-assay plate and the cell culture plates were incubated for 16–20 h at 37 °C, 5% CO2. After overnight incubation, 2.5 μl of inhibitor dissolved in culture medium was added to each well of the cell plates, and then each well was treated with 2.5 μl of necroptosis inducer containing […], AT-406, and zVAD-FMK solution at final concentrations of 200 ng ml^−1, 10 μM, and 200 μM, respectively. Lidded plates were incubated for 16–20 h at 37 °C, 5% CO2. The next day, the supernatant of culture medium in each well was evaluated with CytoTox 96 Non-Radioactive Cytotoxicity Assay (G1780, Promega) according to the manufacturer’s instructions. The absorbance of the test plate was measured by 2103 EnVision Multilabel plate reader.
A, no necroptosis inducer; B, necroptosis inducer; X, necroptosis inducer plus test inhibitor. IC50 values were calculated with XLfit software (IDBS) using a four-parameter logistic curve.

phospho (Ser-345)-MLKL = test: Mouse phospho (Ser-345)-MLKL ELISA assay in L929 cells; type: cell-based; conditions: read-out: L929-pMLKL (IC50)
L929 cells = test: L929 necroptosis assay; type: cell-based; conditions: mouse TNFα + Z-VAD-FMK, 4 h
[1] = test system: MLKL phosphorylation (p-MLKL); test: Immunoblot of MLKL phosphorylation in isolated CD11b+Ly-6G- monocytes; type: cell-based, mouse; conditions: isolated CD11b+Ly-6G- monocyte cells
Experimental: reaction. […] An excitation filter of
Inhibition rate was ex pressed as percent
(%) inhibition of internal assay controls. Percentage inhibition was calculated from the signal […]
For concentration response
(IDBS) using a four-parameter logistic curve. The value of Ki (the inhibitory constant) was […]
In vitro and ex vivo whole blood necroptosis assay. For the isolation of mouse monoc yte […]
density centrifugation over Ficoll-Paque Plus (GE Healthcare). Then, CD11b+/ Ly -6G- […]
manufacturer ’s recommendation. […]
treatment (no stimulation, TSZ stimulation with DMSO control, and TSZ stimulation with […] Nec- 1). As a result, the monocyte and neutrophil fraction was decreased, in which fractions onl y the monocyte fraction was restored by the treatment of RIPK1 inhibitor. (b) Monocyte cell number was counted as CD11b+/Ly-6G- population by FACS staining for further confirmation, since CD11b+ fraction contains Ly-6G+ neutrophil population. The left-hand graph indicates the CD11b+Ly-6G- monocyt e population which was calculated from flow c ytometr y analysis. Representative plots are indicated in the right- hand panels in which CD11b+/ Ly-6G- population are shown as blue dots. Significant reduction in monocyte […]
25 treatment. (c) C D 1 1 b + Ly -6G- monoc yte cells were isolated as des cribed in Supplementary Fi g. 4b and anal ysed b y i mmunoblotting using the indicated antibodies. […]

[2] = test system: CD11b+/Ly-6G- monocytes in mouse whole blood; test: In vitro whole blood necroptosis assay (monocyte cell death); type: cell-based; conditions: for restoration of monocyte number/fraction after TSZ stimulation: FACS
human RIPK1 = biological target: T1, human RIPK1 (Homo sapiens, UniProt Q13546); test: CETSA (Tagg curves and ITDRF) for human RIPK1 with HT-29 cells; type: cell-based; conditions: compound 30 min, 47 °C for 8 min denature, independent runs reported, read-out: human_ITDRF-CETSA (EC50)
T1 construct: ITDRF values of half-maximal stabilization of endogenous RIPK1; endogenous in cells; host or cells: HT-29
T1 sequence (Q13546 1-671): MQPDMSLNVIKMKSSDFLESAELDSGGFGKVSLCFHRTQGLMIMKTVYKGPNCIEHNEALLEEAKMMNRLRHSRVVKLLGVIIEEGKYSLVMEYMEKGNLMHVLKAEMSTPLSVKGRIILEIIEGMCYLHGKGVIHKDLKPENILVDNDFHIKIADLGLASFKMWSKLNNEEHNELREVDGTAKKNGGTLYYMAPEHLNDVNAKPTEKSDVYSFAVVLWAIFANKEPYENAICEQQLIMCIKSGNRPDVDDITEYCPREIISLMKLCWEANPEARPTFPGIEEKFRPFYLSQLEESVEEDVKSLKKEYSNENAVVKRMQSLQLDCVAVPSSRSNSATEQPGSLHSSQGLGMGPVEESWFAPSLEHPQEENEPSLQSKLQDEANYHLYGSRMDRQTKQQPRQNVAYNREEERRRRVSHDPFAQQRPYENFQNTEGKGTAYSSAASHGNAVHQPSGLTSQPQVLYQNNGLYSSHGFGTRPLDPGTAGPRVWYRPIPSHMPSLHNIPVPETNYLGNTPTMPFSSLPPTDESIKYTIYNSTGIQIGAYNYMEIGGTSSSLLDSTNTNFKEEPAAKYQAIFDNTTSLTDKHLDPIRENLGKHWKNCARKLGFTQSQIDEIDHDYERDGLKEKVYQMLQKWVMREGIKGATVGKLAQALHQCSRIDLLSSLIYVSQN
Experimental: HT-29 and L929 cells were harvested and suspended with culture media containing 10% FBS to a cell density of 2 × 10^6 cells ml^−1. Mouse peripheral blood was collected from C57BL/6 J (female, 10-week-old, Charles River Japan) and PBMCs were isolated by density centrifugation over Lympholyte®-Mammal Cell Separation Media, Mammalian (CL5110, Cedarlane Laboratories) according to manual instructions. Briefly, approximately 500 μl of blood was carefully overlaid on 250 μl of the separation media so as not to disturb the layer. The samples were immediately spun at 800 g for 20 min at room temperature. After centrifugation, the buffy coat containing the PBMCs was collected with almost 350 μl of plasma to a cell density of approximately 1 × 10^6 cells ml^−1. […]
For the in-cell thermal aggregation curve experiments, the compound solution was mixed with 9-fold volume of the suspension of cells at approximately 2 × 10^6 cells ml^−1 and the cells were incubated for 30 min at 37 °C, 5% CO2. […] Both whole and supernatant samples were analysed by sodium dodecyl sulfate polyacrylamide gel electrophoresis (SDS-PAGE) followed by Western blotting.
For the ITDRF in cell experiments, compounds were serially diluted to generate dose response curves. […] The heat-treated samples were treated as for the sample preparation and analysed with Western blotting following the procedure described above. […]

IC50 (phospho (Ser-345)-MLKL) [nM] | Compound | IC50 (HT-29 cells) [nM] | IC50 (HT-29 cells; Homo sapiens) [nM] | IC50 (L929 cells) [nM] | inhibition of TSZ-induced MLKL phosphorylation (p-MLKL) [1] | IC50 ([2]; TNF-α + AT-406 + zVAD-FMK, 16–20 h, monocyte population by FACS) [nM] | restoration of monocyte number/fraction after TSZ stimulation [2] | EC50 (human RIPK1) [nM]
– | CN1C(=O)[C@@H](N2CCc3c(nn(Cc4ccccc4)c3Cl)C2=O)COc2ccccc21 [Compound 18, (3S)-3-(2-benzyl-3-chloro-7-oxo-2,4,5,7-tetrahydro-6H-pyrazolo[3,4-c]pyridin-6-yl)-5-methyl-2,3-dihydro-1,5-benzoxazepin-4(5H)-one] | 1.5 | – | – | – | – | – | –
16 | CNC(=O)c1ccc2c(c1)OC[C@H](N1CCc3c(nn(Cc4ccccc4)c3Cl)C1=O)C(=O)N2C [Compound 23] | – | 1.8 | 15 | – | – | – | –
66 | CN1C(=O)[C@@H](N2CCc3cn(Cc4ccccc4F)nc3C2=O)COc2cc(C#N)ccc21 [Compound 25] | – | 8.2 | 140 | completely inhibited | 1200 | rescued | –
– | Nc1ncnc2occ(-c3ccc(NC(=O)Nc4cc(C(F)(F)F)ccc4F)cc3)c12 [GSK-compound 27, reference compound] | – | 300 | – | – | – | – | –
– | CN1C(=O)C(Cc2c[nH]c3ccccc23)NC1=S (centres unmarked) [Nec-1, Necrostatin-1, reference compound] | – | 610 | – | – | – | restored | 1100
